Results as given in the CheMixHub ionic liquid set.
± gives the uncertainty stated by the source.

Test: xn = mol fraction of the nth substance listed

CCO + O + CCCCCCCCCCCCOS(=O)(=O)[O-].[Na+]
298 K, 100 kPa, frequency 0.001 MHz
Details | electrical conductivity [S/m]
x1 = 0.01596, x3 = 0 | 0.00025
x1 = 0.02563, x2 = 0.9744 | 0.00026
x1 = 0.04623, x2 = 0.9538 | 0.00029
x1 = 0.06864, x2 = 0.9314 | 0.00031 ± 0.00057
x1 = 0.1203, x2 = 0.8797 | 0.00025
x1 = 0.1463, x2 = 0.8537 | 0.00025

CCCCCCC(O)CO (configuration not stated) + CCCCCCCC[N+](CCCCCCCC)(CCCCCCCC)CCCCCCCC.[Br-] + [Cl-].[Cl-].[Co+2]
Details | viscosity [mPa·s]
296.1 K, 101.3 kPa, x2 = 0.4, x3 = 0.2 | 27000

CCO + C[C@H](N)C(=O)[O-].C[N+](C)(C)CCO
100 kPa, x2 = 0
Details | viscosity [mPa·s]
288.13 K | 1.15 ± 0.28
289.34 K | 1.12 ± 0.27
290.55 K | 1.1 ± 0.26
291.74 K | 1.06 ± 0.26
292.92 K | 1.03 ± 0.25
294.1 K | 1.01 ± 0.24
295.28 K | 0.98 ± 0.24
296.45 K | 0.96 ± 0.23
297.63 K | 0.93 ± 0.22
298.8 K | 0.9 ± 0.22
299.98 K | 0.88 ± 0.21
301.16 K | 0.85 ± 0.21
302.33 K | 0.82 ± 0.2
303.51 K | 0.8 ± 0.19
304.68 K | 0.77 ± 0.19
305.86 K | 0.73 ± 0.18
307.04 K | 0.71 ± 0.17
308.21 K | 0.68 ± 0.16

CC[S+](CC)CC.O=S(=O)([N-]S(=O)(=O)C(F)(F)F)C(F)(F)F + CCCO
Details | viscosity [mPa·s]
313.15 K, 100 kPa, x1 = 0.6987 | 10.75 ± 0.86

CCO + CC[n+]1ccn(C)c1.N#C[S-]
101 kPa, x2 = 0
Details | viscosity [mPa·s]
293.15 K | 1.18 ± 0.07
303.15 K | 0.98 ± 0.07

CCCCn1cc[n+](CCOCCOCCOCC[n+]2ccn(CCCC)c2)c1.N#C[N-]C#N.N#C[N-]C#N + CC[n+]1ccn(C)c1.N#C[N-]C#N + O=S(=O)([N-]S(=O)(=O)C(F)(F)F)C(F)(F)F.[Li+]
100 kPa, x1 = 0.2237, x2 = 0.6826
Details | electrical conductivity [S/m]
298 K | 0.491 ± 0.02
303 K | 0.589 ± 0.024
313 K | 0.812 ± 0.032
323 K | 1.1 ± 0.044
333 K | 1.42 ± 0.057
343 K | 1.79 ± 0.071

CCO + CCCCCCCC(=O)[O-].c1c[nH+]c[nH]1
101.3 kPa, x1 = 1
Details | viscosity [mPa·s]
293.15 K | 1.21 ± 0.04
303.15 K | 1 ± 0.032

CCO + CC[N+]1(C)CCCC1.COP(=O)([O-])OC
100 kPa, x2 = 0
Details | viscosity [mPa·s]
308.15 K | 0.9 ± 0.05
318.15 K | 0.75 ± 0.05
328.15 K | 0.63 ± 0.04
333.15 K | 0.58 ± 0.04

O=S(=O)([N-]S(=O)(=O)C(F)(F)F)C(F)(F)F.[Rb+] + O=S(=O)([N-]S(=O)(=O)C(F)(F)F)C(F)(F)F.[Li+]
100 kPa, x2 = 0.25
Details | viscosity [mPa·s]
452.5 K | 47.7 ± 5
463 K | 36.9 ± 3.8
483.1 K | 22.7 ± 2.3
523.6 K | 10.2 ± 1
531.9 K | 8.55 ± 0.87

100 kPa, frequency 1 MHz, x2 = 0.25
Details | electrical conductivity [S/m]
512.5 K | 2.82 ± 0.28
531.5 K | 3.59 ± 0.36

CCC(=O)OC + O=S(=O)([N-]S(=O)(=O)C(F)(F)F)C(F)(F)F.[Li+] + COC(=O)OC
298.15 K, 100 kPa
Details | viscosity [mPa·s]
x2 = 0.333, x3 = 0 | 21.6 ± 0.5
x2 = 0.333, x3 = 0.3335 | 38.6 ± 1.1

CCCCCCCCCCCCCC[n+]1ccccc1.O=C([O-])C(O)c1ccccc1 + CC(C)[C@H](N)C(=O)O + O
electrical conductivity [S/m], 101 kPa
Details | 293.15 K | 298.15 K | 303.15 K | 308.15 K | 313.15 K
x1 = 6.19e-06, x2 = 0.001799 | 0.00217 ± 0.00055 | 0.00247 ± 0.00062 | 0.00278 ± 0.00069 | 0.00312 ± 0.00077 | 0.00346 ± 0.00085
x1 = 6.85e-06, x2 = 0 | 0.00248 ± 0.00074 | 0.00278 ± 0.00083 | 0.00309 ± 0.00092 | 0.0034 ± 0.001 | 0.0037 ± 0.0011
x1 = 8.87e-06, x2 = 0.0009002 | 0.00274 ± 0.00063 | 0.00311 ± 0.00071 | 0.00349 ± 0.00079 | 0.00388 ± 0.00088 | 0.00427 ± 0.00097
x1 = 1.146e-05, x2 = 0.001799 | 0.00366 ± 0.00071 | 0.00413 ± 0.0008 | 0.00464 ± 0.0009 | 0.0052 ± 0.001 | 0.0057 ± 0.0011
x1 = 1.424e-05, x2 = 0 | 0.00472 ± 0.00079 | 0.00529 ± 0.00089 | 0.00587 ± 0.00099 | 0.0065 ± 0.0011 | 0.0071 ± 0.0012
x1 = 1.485e-05, x2 = 0.0009002 | 0.00439 ± 0.00076 | 0.00496 ± 0.00085 | 0.00555 ± 0.00096 | 0.0061 ± 0.0011 | 0.0068 ± 0.0012
x1 = 1.674e-05, x2 = 0.001799 | 0.0051 ± 0.00079 | 0.00578 ± 0.00089 | 0.0065 ± 0.001 | 0.0072 ± 0.0011 | 0.008 ± 0.0012
x1 = 1.847e-05, x2 = 0.0009002 | 0.00537 ± 0.00079 | 0.00606 ± 0.00088 | 0.0068 ± 0.001 | 0.0075 ± 0.0011 | 0.0083 ± 0.0012
x1 = 2.126e-05, x2 = 0 | 0.00671 ± 0.0009 | 0.0076 ± 0.001 | 0.0084 ± 0.0011 | 0.0093 ± 0.0013 | 0.0101 ± 0.0014
x1 = 2.202e-05, x2 = 0.001799 | 0.00655 ± 0.00089 | 0.0074 ± 0.001 | 0.0083 ± 0.0011 | 0.0093 ± 0.0013 | 0.0102 ± 0.0014
x1 = 2.264e-05, x2 = 0.0009002 | 0.00641 ± 0.00083 | 0.0072 ± 0.00093 | 0.0081 ± 0.001 | 0.009 ± 0.0012 | 0.0099 ± 0.0013
x1 = 2.693e-05, x2 = 0.001799 | 0.00788 ± 0.00098 | 0.0089 ± 0.0011 | 0.01 ± 0.0012 | 0.0111 ± 0.0014 | 0.0123 ± 0.0015
x1 = 2.698e-05, x2 = 0.0009002 | 0.00756 ± 0.00096 | 0.0086 ± 0.0011 | 0.0096 ± 0.0012 | 0.0106 ± 0.0014 | 0.0117 ± 0.0015
x1 = 2.811e-05, x2 = 0 | 0.0086 ± 0.001 | 0.0097 ± 0.0012 | 0.0108 ± 0.0013 | 0.0122 ± 0.0015 | 0.0131 ± 0.0016
x1 = 3.187e-05, x2 = 0.0009002 | 0.0089 ± 0.001 | 0.01 ± 0.0012 | 0.0113 ± 0.0013 | 0.0125 ± 0.0015 | 0.0138 ± 0.0016
x1 = 3.257e-05, x2 = 0.001799 | 0.0094 ± 0.0011 | 0.0106 ± 0.0012 | 0.0119 ± 0.0014 | 0.0132 ± 0.0015 | 0.0146 ± 0.0017
x1 = 3.46e-05, x2 = 0 | 0.0103 ± 0.0011 | 0.0116 ± 0.0013 | 0.0129 ± 0.0014 | 0.0145 ± 0.0016 | 0.0157 ± 0.0018
x1 = 3.876e-05, x2 = 0.001799 | 0.0107 ± 0.0012 | 0.0121 ± 0.0013 | 0.0136 ± 0.0015 | 0.0152 ± 0.0016 | 0.0169 ± 0.0018
x1 = 3.93e-05, x2 = 0.0009001 | 0.0105 ± 0.0011 | 0.0119 ± 0.0013 | 0.0133 ± 0.0014 | 0.0148 ± 0.0016 | 0.0164 ± 0.0018
x1 = 4.108e-05, x2 = 0 | 0.0117 ± 0.0012 | 0.0131 ± 0.0014 | 0.0146 ± 0.0015 | 0.0161 ± 0.0017 | 0.0179 ± 0.0019
x1 = 4.549e-05, x2 = 0.001799 | 0.0119 ± 0.0012 | 0.0134 ± 0.0014 | 0.0151 ± 0.0016 | 0.0169 ± 0.0018 | 0.0188 ± 0.0019
x1 = 4.618e-05, x2 = 0.0009001 | 0.0116 ± 0.0012 | 0.0131 ± 0.0014 | 0.0147 ± 0.0015 | 0.0165 ± 0.0017 | 0.0183 ± 0.0019
x1 = 4.811e-05, x2 = 0 | 0.0129 ± 0.0013 | 0.0144 ± 0.0015 | 0.0161 ± 0.0017 | 0.0179 ± 0.0019 | 0.0198 ± 0.0021
x1 = 5.295e-05, x2 = 0.001799 | 0.0129 ± 0.0013 | 0.0146 ± 0.0015 | 0.0164 ± 0.0017 | 0.0183 ± 0.0019 | 0.0203 ± 0.0021
x1 = 5.324e-05, x2 = 0.0009001 | 0.0126 ± 0.0013 | 0.0142 ± 0.0014 | 0.0159 ± 0.0016 | 0.0178 ± 0.0018 | 0.0198 ± 0.002
x1 = 5.388e-05, x2 = 0 | 0.0137 ± 0.0014 | 0.0154 ± 0.0016 | 0.0172 ± 0.0018 | 0.0191 ± 0.002 | 0.0211 ± 0.0022
x1 = 5.982e-05, x2 = 0 | 0.0145 ± 0.0015 | 0.0163 ± 0.0017 | 0.0182 ± 0.0019 | 0.0202 ± 0.0021 | 0.0224 ± 0.0023
x1 = 6.012e-05, x2 = 0.0009001 | 0.0134 ± 0.0014 | 0.015 ± 0.0015 | 0.017 ± 0.0017 | 0.0191 ± 0.002 | 0.0212 ± 0.0022
x1 = 6.078e-05, x2 = 0.001799 | 0.014 ± 0.0014 | 0.0158 ± 0.0016 | 0.0177 ± 0.0018 | 0.0198 ± 0.002 | 0.0221 ± 0.0023
x1 = 6.559e-05, x2 = 0 | 0.0153 ± 0.0016 | 0.0172 ± 0.0018 | 0.0192 ± 0.0019 | 0.0213 ± 0.0022 | 0.0236 ± 0.0024
x1 = 6.609e-05, x2 = 0.0009001 | 0.0142 ± 0.0014 | 0.016 ± 0.0016 | 0.018 ± 0.0018 | 0.0202 ± 0.0021 | 0.0224 ± 0.0023
x1 = 6.788e-05, x2 = 0.001799 | 0.015 ± 0.0015 | 0.0169 ± 0.0017 | 0.0189 ± 0.0019 | 0.0211 ± 0.0022 | 0.0236 ± 0.0024
x1 = 7.081e-05, x2 = 0 | 0.016 ± 0.0016 | 0.018 ± 0.0018 | 0.02 ± 0.002 | 0.0223 ± 0.0023 | 0.0246 ± 0.0025
x1 = 7.153e-05, x2 = 0.0009001 | 0.0149 ± 0.0015 | 0.0168 ± 0.0017 | 0.0189 ± 0.0019 | 0.0212 ± 0.0022 | 0.0236 ± 0.0024
x1 = 7.424e-05, x2 = 0.001799 | 0.0158 ± 0.0016 | 0.0179 ± 0.0018 | 0.0201 ± 0.002 | 0.0224 ± 0.0023 | 0.0249 ± 0.0025
x1 = 7.604e-05, x2 = 0 | 0.0167 ± 0.0017 | 0.0187 ± 0.0019 | 0.0209 ± 0.0021 | 0.0232 ± 0.0024 | 0.0258 ± 0.0026
x1 = 7.714e-05, x2 = 0.0009001 | 0.0156 ± 0.0016 | 0.0176 ± 0.0018 | 0.0198 ± 0.002 | 0.0223 ± 0.0023 | 0.0248 ± 0.0026
x1 = 8.025e-05, x2 = 0.001799 | 0.0166 ± 0.0017 | 0.0188 ± 0.0019 | 0.0211 ± 0.0021 | 0.0236 ± 0.0024 | 0.0262 ± 0.0027
x1 = 8.072e-05, x2 = 0 | 0.0173 ± 0.0018 | 0.0194 ± 0.002 | 0.0217 ± 0.0022 | 0.0241 ± 0.0024 | 0.0266 ± 0.0027
x1 = 8.257e-05, x2 = 0.0009001 | 0.0163 ± 0.0017 | 0.0185 ± 0.0019 | 0.0208 ± 0.0021 | – | –
